Laboratory results as given in the NIST ThermoML archive (doi:10.1016/j.tca.2017.02.001).
Numbers after ± are expanded uncertainties.

Conditions: 298.15 K, 101.33 kPa, Liquid

OCCO [1,2-ethanediol]
viscosity (Cone and plate viscometry): 16.9 ± 1.7 mPa·s
electrical conductivity (Direct current cell with electrodes): 8.5e-05 ± 2e-06 S/m
thermal conductivity (transient hot wire): 0.2445 ± 0.0098 W/m/K
